The results in this text go back to patent US8252940B2, “5-substituted-2-imino-thiazolidinone compounds and their use as inhibitors of bacterial infection” (University of Washington, priority 2008, dated 2012).

The structures appear in SMILES notation.

This test has as its system type III secretion in S. typhimurium. The test is described as follows: microbe, parasite or virus in culture. Conditions: for % inhibition of SipA secretion: Western blot. The class given is cell-based, Salmonella enterica serovar Typhimurium. (A western blot detects proteins with antibodies after separation by electrophoresis.)
[1] abbreviates: Salmonella enterica, TYPHIMURIUM, read-out: % inhibition of SipA secretion.

As for `COc1cc(/C=C2\S/C(=N\c3ccccc3)N(C(C(=O)N[C@@H](Cc3ccc(O)cc3)C(N)=O)C(C)C)C2=O)cc(OC)c1O` (single isomer, unassigned) [compound 69], under setting [1], the inhibition at 33 µM was 32% and the inhibition at 330 µM came out at 97%.
As to `COc1cc(/C=C2\S/C(=N\c3ccccc3)N([C@@H](CCCN)C(=O)N[C@@H](C)C(N)=O)C2=O)cc(OC)c1O` [compound 86], the “% inhibition of SipA secretion” value (3.3 μM) was found to be 19%, the “% inhibition of SipA secretion” value (33 μM) came out at 46% and the “% inhibition of SipA secretion” value (330 μM) is 100%.
As to `COc1cc(/C=C2\SC(=N)N(c3ccccc3)C2=O)cc(OC)c1O` [Compound 5], the “% Secretion” value (type III secretion in S. typhimurium, SipA secretion by Western blot) came to 81.2 ± 0%.
Take `COc1cc(/C=C2\S/C(=N\c3ccccc3)N(CCCCCCN)C2=O)cc(OC)c1O` [compound 45, (2Z,5Z)-3-(6-aminohexyl)-5-(4-hydroxy-3,5-dimethoxybenzylidene)-2-(phenylimino)-thiazolidin-4-one]: under setting [1], the inhibition at 3.3 µM was 12%, the inhibition at 33 µM was determined as 42% and the inhibition at 330 µM was determined as 95%.

As usually defined, the inhibition is the change of the read-out against control, counted positive when it falls.
